In ChEMBL document CHEMBL3046480, “Synthesis of damnacanthal, a naturally occurring 9,10-anthraquinone and its analogues, and its biological evaluation against five cancer cell lines” (Med Chem Res, 2013):
Active and inactive are the calls of the source. The rule behind the calls is not given here.

Legend:
MCF7 = experiment: Cytotoxicity against Homo sapiens (human) MCF7 cells assessed as inhibition of cell survival after 96 hr by MTT assay; type: functional, cell-based
DU-145 = experiment: Cytotoxicity against Homo sapiens (human) DU145 cells assessed as inhibition of cell survival after 96 hr by MTT assay; type: functional, cell-based
MES-SA = experiment: Cytotoxicity against Homo sapiens (human) MES-SA cells assessed as inhibition of cell survival after 96 hr by MTT assay; type: functional, cell-based
[1] = Antioxidant activity measured after 3 min by ferric thiocyanate method; type: functional
[2] = Cytotoxicity against Homo sapiens (human) MES-SA/Dx5 cells assessed as inhibition of cell survival after 96 hr by MTT assay; type: functional, cell-based
[3] = Cytotoxicity against Homo sapiens (human) H460 cells assessed as inhibition of cell survival after 96 hr by MTT assay; type: functional, cell-based, NCI-H460
[4] = Antioxidant activity measured after 10 min by thiobarbituric acid method; type: functional
[5] = Homo sapiens, MCF7, 96 h, read-out: IC50
[6] = Homo sapiens, DU-145, 96 h, read-out: IC50
[7] = Homo sapiens, NCI-H460, 96 h, read-out: IC50
[8] = Homo sapiens, MES-SA, 96 h, read-out: IC50
[9] = Homo sapiens, MES-SA/Dx5, 96 h, read-out: IC50

Compound | IC50 (MCF7; [5]) [µM] | IC50 (DU-145; [6]) [µM] | IC50 (MES-SA; mes-sa) | Activity [1] | IC50 ([2]; mes-sa/dx5) | IC50 [3, 7] [µM] | Activity [4] | IC50 ([3]; nci-h460) | IC50 (MCF7; mcf7) | IC50 (DU-145; du-145) | IC50 (MES-SA; [8]) [µM] | IC50 [2, 9] [µM]
O=C1c2ccccc2C(=O)c2cc(O)ccc21 [2-HYDROXYANTHRAQUINONE] | 69 | 72 | Not Active | inactive | Not Active | 66 | – | – | – | – | – | –
O=C1c2ccccc2C(=O)c2c1ccc(O)c2O | – | – | – | Active | – | – | Active | – | – | – | – | –
CCOCc1c(OC(C)=O)cc2c(c1OC)C(=O)c1ccccc1C2=O | 30 | 23 | Not Active | inactive | Not Active | – | – | Not Active | – | – | – | –
Cc1cc(C(C)(C)C)c(O)c(C(C)(C)C)c1 | – | – | – | Active | – | – | – | – | – | – | – | –
O=C1c2ccccc2C(=O)c2c(O)cc(Br)cc21 | – | – | Not Active | inactive | Not Active | – | – | Not Active | Not Active | Not Active | – | –
COc1c(CBr)c(OC(C)=O)cc2c1C(=O)c1ccccc1C2=O | 6 | 5 | Not Active | inactive | Not Active | 26 | – | – | – | – | – | –
O=C1c2ccccc2C(=O)c2cc(Br)c(O)cc21 | – | – | Not Active | inactive | Not Active | – | – | Not Active | Not Active | Not Active | – | –
COc1cc2c(c(O)c1CBr)C(=O)c1ccccc1C2=O | 34 | 26 | – | inactive | Not Active | 30 | – | – | – | – | 4 | –
COc1cc2c(c(OC)c1C)C(=O)c1ccccc1C2=O | – | – | Not Active | inactive | Not Active | – | – | Not Active | Not Active | Not Active | – | –
O=Cc1c(O)cc2c(c1O)C(=O)c1ccccc1C2=O | 36 | 42 | – | Active | Not Active | 40 | Active | – | – | – | 18 | –
COc1cc2c(c(OC)c1C=O)C(=O)c1ccccc1C2=O | 55 | 32 | – | inactive | Not Active | 65 | – | – | – | – | 5 | –
O=C1c2ccccc2C(=O)c2c(O)ccc(O)c21 [QUINIZARIN] | – | – | Not Active | inactive | Not Active | – | – | Not Active | Not Active | Not Active | – | –
COc1ccc(O)c2c1C(=O)c1ccccc1C2=O | 79 | 74 | Not Active | inactive | Not Active | 82 | – | – | – | – | – | –
COc1ccc(OC)c2c1C(=O)c1ccccc1C2=O [1,4-DIMETHOXYANTHRAQUINONE] | 70 | 69 | Not Active | inactive | Not Active | 71 | – | – | – | – | – | –
COc1ccc(C)c2c1C(=O)c1ccccc1C2=O | 55 | 48 | – | inactive | Not Active | 54 | – | – | – | – | 19 | –
O=C1c2ccccc2C(=O)c2c(Br)cc(O)cc21 | 27 | 44 | – | inactive | – | 43 | – | – | – | – | 56 | 29

Compound | IC50 (MCF7; [5]) [µM] | IC50 (DU-145; [6]) [µM] | IC50 (MES-SA; mes-sa) | Activity [1] | IC50 ([2]; mes-sa/dx5) | IC50 [3, 7] [µM] | Activity [4] | IC50 ([3]; nci-h460) | IC50 (MCF7; mcf7) | IC50 (DU-145; du-145) | IC50 (MES-SA; [8]) [µM] | IC50 [2, 9] [µM]
VITAMIN E | – | – | – | Active | – | – | – | – | – | – | – | –
COc1cc2c(c(OC)c1CBr)C(=O)c1ccccc1C2=O | 8 | 4 | – | inactive | – | 5 | – | – | – | – | 2 | 2
COc1c(C=O)c(O)cc2c1C(=O)c1ccccc1C2=O [DAMNACANTHAL] | 11 | 26 | Not Active | Active | Not Active | 25 | Active | – | – | – | – | –
CCOCc1c(O)cc2c(c1OC)C(=O)c1ccccc1C2=O | 35 | 50 | Not Active | inactive | Not Active | – | – | Not Active | – | – | – | –
Cc1c(O)cc2c(c1O)C(=O)c1ccccc1C2=O [Rubiadin] | 56 | 32 | – | inactive | – | 42 | – | – | – | – | 38 | 35
COc1c(C=O)c(O)c(Br)c2c1C(=O)c1ccccc1C2=O | 19 | 34 | Not Active | inactive | Not Active | 32 | – | – | – | – | – | –
O=C1c2ccccc2C(=O)c2c(O)cc(O)cc21 [XANTHOPURPURIN] | 55 | 29 | – | inactive | – | 23 | – | – | – | – | 30 | 21
CC(=O)Oc1cc2c(c(O)c1C)C(=O)c1ccccc1C2=O | 56 | 37 | Not Active | inactive | Not Active | 68 | – | – | – | – | – | –
COc1cc2c(c(OC)c1C(Br)Br)C(=O)c1ccccc1C2=O | 27 | 28 | – | inactive | – | 23 | – | – | – | – | 10 | 7
O=C1c2ccccc2C(=O)c2c(Br)ccc(O)c21 | 36 | 27 | – | inactive | – | 20 | – | – | – | – | 14 | 20
O=C1c2ccccc2C(=O)c2c(O)cccc21 [1-HYDROXYANTHRAQUINONE] | – | – | Not Active | inactive | Not Active | – | – | Not Active | Not Active | Not Active | – | –
CCOCc1c(OC)cc2c(c1OC)C(=O)c1ccccc1C2=O | – | – | Not Active | inactive | Not Active | – | – | Not Active | Not Active | Not Active | – | –
COc1c(C)c(OC(C)=O)cc2c1C(=O)c1ccccc1C2=O | 26 | 27 | Not Active | inactive | Not Active | – | – | Not Active | – | – | – | –
Cc1ccc(O)c2c1C(=O)c1ccccc1C2=O | – | – | Not Active | inactive | Not Active | – | – | Not Active | Not Active | Not Active | – | –
COc1ccc2c(c1)C(=O)c1ccccc1C2=O [2-METHOXYANTHRAQUINONE] | 68 | 70 | Not Active | inactive | Not Active | 68 | – | – | – | – | – | –
Cc1c(O)c(Br)c2c(c1O)C(=O)c1ccccc1C2=O | 28 | 31 | – | inactive | – | 19 | – | – | – | – | 20 | 30
